Test results taken from patent publication US10561708B2, “Anti-tumor therapy” (The University of Chicago, priority 2013, dated 2020).

Columns and labels:
CWR-R1 xenografts = experiment: Xenograft tumor growth in nude mice; format: in vivo; settings: CWRR1
Description: (§1) To determine the potential therapeutic value of targeting the JAK/STAT pathway in prostate cancer, the cells were exposed to the specific JAK2 inhibitor SAR302503. Since it is expected that the greatest value of inhibiting the JAK/STAT pathway is in combination with other toxic insults we evaluated the effect of ionizing radiation used in the treatment of CRPC, and SAR302503 in the genetically related CWR lines (FIG. 2). Cells were plated in p60 dishes with or w/o 0.5 μM of SAR302503 and irradiated with 2 or 5 Gy (or left un-irradiated). Colonies counting and estimation of survival fractions were performed as described elsewhere (Khodarev et. al., 2007, Cancer Research). […] To extend these observations in preclinical animal models we established xenografts of CWR-R1 and CWR-22RV1. For this purpose 10^7 cells were injected in the right flank of each nude mice (5 animals per group) and when tumors reached 200 mm^3 in volume mice were either left un-treated, or treated with SAR302503 (120 mg/kg, once a day, 4 days) or irradiated locally (2×10 Gy) or subjected to combined treatments with SAR302503 and IR. […] At the same tumors treatment by SAR302503 alone led to the 4-days growth delay compared with control tumors. These effects were not observed in CWRR1. Molecular differences between two tumors are currently under investigation. The difference between CWR-R1 and CWR-22RV1 is especially noteworthy since they are isogenic, castrate resistant, and carry both native and splice variant androgen receptor, which is reminiscent of the findings in human prostate cancer specimens.

CWR-22RV1 xenografts = experiment: Xenograft tumor growth in nude mice; format: in vivo
Description: as §1

CWR-22RV1 cells = experiment: Clonogenic survival with ionizing radiation with or w/o SAR302503; format: cell-based; settings: 0.5 μM SAR302503, 2 or 5 Gy
Description: (§2) These cell lines were characterized for relative radioresistance using a clonogenic assay. Briefly, the cells were cultured in their appropriate media at 5% CO2 at 37° C. Optimal cell plating concentrations for a p60 dish were determined for each cell line. The majority of cell lines were plated in triplicate at concentrations of 100 cells/plate for control, 1000 cells/plate for 2 Gy, 2000 cells/plate for 5 Gy, and 3000 cells/plate for 8 Gy. Plates were irradiated 24 hours after plating with either 2, 5, or 8 Gy using a irradiated using a Nordion Gammacell ^60Co irradiator operating at a dose rate of ˜18 Gy/minute. Cells were allowed to grow for 10-21 days (depending on the cell line) until colonies were >50 cells. Plates were then fixed with formalin and stained with crystal violet. Colonies with more than 50 cells were counted. Clonogenic survival for Clonogenic data was obtained for all cell lines tested in screen.
(§3) To determine the potential therapeutic value of targeting the JAK/STAT pathway in prostate cancer, the cells were exposed to the specific JAK2 inhibitor SAR302503. Since it is expected that the greatest value of inhibiting the JAK/STAT pathway is in combination with other toxic insults we evaluated the effect of ionizing radiation used in the treatment of CRPC, and SAR302503 in the genetically related CWR lines (FIG. 2). […]

CWR-R1 cells = experiment: as above; format: cell-based; settings: 0.5 μM SAR302503, 2 or 5 Gy
Description: as §2, §3

`Cc1cnc(Nc2ccc(OCCN3CCCC3)cc2)nc1Nc1cccc(S(=O)(=O)NC(C)(C)C)c1` [SAR302503] was tested, and the “tumor growth, combined treatment with IR” value (CWR-R1 xenografts; 120 mg/kg once a day 4 days + IR 2×10 Gy) was “not observed”, the “growth delay compared with control tumors, inhibitor alone” value (CWR-R1 xenografts; 120 mg/kg, once a day, 4 days) was “not observed” and the “tumor growth, combined treatment with IR” value (CWR-22RV1 xenografts; 120 mg/kg once a day 4 days + IR 2×10 Gy, by day 9 after beginning of treatment) was “significant suppression of tumor growth”. For the same molecule, the “growth delay compared with control tumors, inhibitor alone” value (CWR-22RV1 xenografts; 120 mg/kg, once a day, 4 days) was 4 days, the “enhancement of effects of IR (survival fraction, colonies)” value (CWR-22RV1 cells) was “significantly enhanced” and the “enhancement of cytotoxic activity of IR (survival fraction, colonies)” value (CWR-R1 cells) was “not enhanced”.
